Measured values reported in patent publication US20260125351A1, “COMPOUND FOR INDUCING EXPRESSION OF ANTI-AGING GENE KLOTHO AND USE THEREOF” (KLOTHO SCIENCES, priority 2019, published 2026).

Columns and labels:
klotho protein = assay: Klotho protein expression level in cisplatin-treated HK-2 cells; assay type: cell-based, human; conditions: cisplatin (20 μM) disease model, KS1 3 μM, after 24 hours (FIG. 7B)
Description: As in the protocol in FIG. 7A, a disease model was made by treating HK-2 cells (human renal cells) with cisplatin (20 μM), and then treated with a KS1 compound (Example 10) (3 μM). After 24 hours, the expression degree of the klotho protein was confirmed by obtaining the cells.

[1] = test system: promoter of the human klotho gene; assay: Luciferase expression experiment, reporter gene pHKP-luc (promoter up to -2.1 kb upstream) in RPTECs; assay type: cell-based
Description: (§1) In order to evaluate whether the klotho gene was expressed by the evaluation of luciferase activity, human renal proximal tubule epithelial cells (RPTECs) (ATCC CRL-4031), which are epithelial cells of the proximal tubule of the human kidneys, were purchased from Lonza, USA and used.
(§2) For culturing, a Renal Epithelial Growth Medium (REGM™) Bullet kit, also manufactured by the same Lonza company, was used, and the cells were cultured under conditions of 37° C. and 5% CO2. As a plasmid for luciferase expression, a plasmid in which the promoter site of a human KL (klotho) gene was disposed to regulate the expression of a firefly luciferase gene was used.
(§3) The plasmid was incorporated into cells using an X-treme GENE transfection reagent from Roche. The activity of luciferase expressed in cells was measured using a Dual-Luciferase reporter assay system manufactured by Promega. After the cultured cells were treated with each compound at an indicated concentration for 24 hours, the activity of luciferase was measured. It is indirectly shown that the expression of the klotho gene may be increased when the activity of luciferase is high.
The results of confirming the expression of a reporter gene by treating RPTECs, which are epithelial cells of the proximal tubule of the human kidneys, with Examples 1 to 6 at concentrations of 0.5, 1 and 5 μM and Comparative Example 1 at a concentration of 5 μM and using a reporter gene (pHKP-luc) including a promoter included up to −2.1 kb upstream of the human klotho gene are illustrated in FIGS. 2 and 3.

klotho (KL) gene [2] = assay: Quantitative evaluation of klotho (KL) gene expression level using general PCR in RPTEC cells; assay type: cell-based, human; parameters: dose or concentration left out as unconfirmed; conditions: general PCR (FIG. 5)
Description: After RPTEC cells, which are epithelial cells of the proximal tubule of the human kidneys, were each treated with the compounds of Examples 7 to 10 at […] for 6 hours. RNA was extracted from the cells, and cDNA was prepared from the extracted RNA using a Superscript II kit from Thermo Fisher Scientific, Inc., and then general PCR was performed.
Information on the primers used in the experiment is as follows.
The DNA amplified by PCR was confirmed by staining with ethidium bromide after electrophoresis on an agarose gel, and the amounts of DNA in the band were quantitatively compared using the SPEedyQuant program, and are illustrated in FIG. 5.

[3] = test system: human kidney-2 (HK2) cells; assay: Toxicity test, EZ-Cytox kit; assay type: cell-based; conditions: 12.5 μM or 25 μM, 24 hours
Description: Cultured human kidney-2 (HK2) cells were treated with Comparative Example 1, Example 2 and Examples 9 to 10 at a concentration of 25 μM or 12.5 μM, and after 24 hours, cytotoxicity was measured using an EZ-Cytox kit.

[4] = test system: spontaneous hypertensive rat (SHR); assay: Effect of reducing hypertension in spontaneous hypertensive rat; assay type: in vivo; conditions: SHR rats
Description: A 6-week-old rat male WKY/lzm was used as a normal control, and a 6-week-old rat male SHR/lzm was used as an experimental group in which hypertension was induced. All animals were purchased from the Central Laboratory Animal, and experiments were conducted at the rearing facility in a re-entry area within the Experimental Animal Center of the Osong Medical Innovation Foundation. The […] were quarantined and acclimatized for 7 days after receipt, and the health of the animals was observed during this period.
Group separation was performed on the end day of instrument acclimatization (group separation day) among animals having no general symptoms. […]
• (1) A test material and a positive control material were dissolved in an excipient in a liquid amount of 20 mIJkg according to the corresponding concentration. • (2) After quarantine and acclimatization, the excipient, the test material, and the positive control material were administered after group separation based on the blood pressure and body weight of animals. • (3) All administration groups were administered orally 7 times/week for 8 weeks using a 3 mL syringe with a liquid amount of 20 mL/kg based on the body weight measured once a week. […]
On days 36 and 64 after administration of the drug, blood pressure was measured by placing the animals in a blood pressure measuring frame and allowing the tails to come out. […]

[5] = test system: unilateral ureter obstruction model; assay: Unilateral ureter obstruction (UUO) model; assay type: in vivo; conditions: UUO mice, 20 mg/kg/day into the abdominal cavity
Description: In a unilateral ureter obstruction model, 5-week-old male […] mice were used. After the right ureter was tied with a thread to create a unilateral ureter obstruction model, the KS1 compound (20 mg/kg/day) was injected into the abdominal cavity daily starting 24 hours later. After that, samples were collected by sacrificing the mice on days 7 and 14 and tested (FIG. 8A).

[6] = test system: Human renal proximal tubule epithelial cells (RPTECs); assay: Inhibition of cellular senescence, senescence β-galactosidase staining; assay type: cell-based
Description: Human renal proximal tubule epithelial cells (RPTECs), which are renal tubular epithelial cells, were purchased from Lonza, and as a culture medium, a REGM kit supplied by the same company was also used. Cells were cultured in a 37° C. incubator under 5% CO2 conditions. When the cells reached 80% saturation, the cells were treated with trypsin, transferred to a new culture dish, and subcultured. A compound was attached to the medium such that the final concentration was 2.5 μM, and a constant concentration was maintained by adding the compound thereto during each passage. […] As for the cells inducing senescence, cells subcultured 17 times (#17) in total were used.
“Senescence β-galactosidase staining kit” from Cell Signaling Technology, Inc. was used to confirm the degree of senescence of cells. On the day of the experiment, a staining solution was added to the cells, and the stained cells were confirmed 8 hours later. The number of stained cells was confirmed and expressed as a ratio among the total number of cells observed under a 200-fold microscope, and the number of stained cells at three different locations per sample was counted and averaged. As the senescence of the cells progresses, the expression of the enzyme β-galactosidase increases, and therefore the stained cells may be determined as more senescent cells than the non-stained cells.

[7] = test system: promoter of the human klotho gene; assay: Luciferase expression experiment, klotho promoter reporter (1.7 kbp or 240 bp) in RPTEC cells; assay type: cell-based; conditions: 5 μM, 24 hours, reporter with klotho promoter to 1.7 kbp or 240 bp, among Comparative Examples 1 to 4 (FIG. 1)
Description: as §1, §2
as §3, with “high. […]” for “high.”

klotho (KL) gene [8] = assay: Quantitative evaluation of klotho (KL) gene expression level using real-time PCR in RPTEC cells; assay type: cell-based, human; conditions: RPTEC cells treated for 6 hours; real-time PCR (FIG. 4)
Description: For RNA extraction from RPTEC cells, which are epithelial cells of the proximal tubule of the human kidneys, treated with the compounds of Comparative Example 1 and Examples 1 and 2 for 6 hours, an RNeasy kit from Qiagen Inc. was used. The results of preparing cDNA from extracted RNA using a Superscript II kit from Thermo Fisher Scientific. Inc. and performing the quantitative evaluation using Taqman Gene Expression assays from Applied Biosystems as a klotho (KL) gene-specific kit are illustrated in FIG. 4.

[9] = RPTECs, Examples at 0.5, 1 and 5 μM, Comparative Example 1 at 5 μM, pHKP-luc (FIG. 2)

Structure (SMILES): N.N.[Cl][Pt][Cl] [cisplatin, reference compound]
- expression of the klotho protein (klotho protein): decreased

Structure (SMILES): O=C(Nc1nc2ccccc2o1)c1ccc([N+](=O)[O-])cc1Cl [Example 1, N-(benzo[d]oxazol-2-yl)-2-chloro-4-nitrobenzamide]
- expression of the reporter gene [1, 9]: at a level similar to that of Comparative Example 1

Structure (SMILES): Fc1ccc(Nc2nc3ccccc3o2)cc1F [Example 10, N-(3,4-difluorophenyl)benzo[d]oxazol-2-amine]
- expression level of the klotho (KL) gene relative to Comparative Example 1 (klotho (KL) gene [2]): about 10 times
- improvement of toxicity compared to Comparative Example 1 [3]: ≥ 20%
- cytotoxicity ([3]; EZ-Cytox (FIG. 6)): least toxicity
- blood pressure reduction effect on co-administration with losartan ([4]; KS1 co-administered with losartan, versus each drug administered independently (FIG. 14)): better blood pressure reduction effect
- systolic pressure ([4]; oral 20 mg/kg/day for 8 weeks, measured days 36 and 64 (FIG. 14)): remarkably reduced
- expression of the klotho protein (klotho protein): increased
- renal hypertrophy (kidney size) ([5]; days 7 and 14 (FIG. 8B)): no difference in size
- nuclear and cytoplasmic changes, H&E staining ([5]; one-week and two-week samples (FIG. 9)): large reduction in tissue destruction
- klotho protein expression ([5]; one-week sample (FIG. 12)): increased
- fibrosis progression, Sirius Red staining ([5]; versus UUO model not treated with KS1 (FIG. 10)): fibrosis occurred less
- degree of apoptosis, TUNEL staining ([5]; versus UUO model not treated with KS1 (FIG. 11)): remarkably reduced
- expression level of MMP-9 protein (inflammation marker) ([5]; week 1 and week 2 (FIG. 13)): remarkably reduced
- cells stained (senescence β-galactosidase) ([6]; RPTECs subcultured 17 times, 2.5 μM in medium, DMSO about 90% (FIG. 15)): about 70%
- decrease in degree of senescence compared to DMSO ([6]; RPTECs, 17 passages, 2.5 μM): about 20%

Structure (SMILES): O=C(Nc1ccccc1Cl)c1c[nH]c2ccccc12 [Comparative Example 1, N-(2-chlorophenyl)-1H-indole-3-carboxamide]
- luciferase activity [7]: highest

Structure (SMILES): Cc1ccc2oc(Nc3ccc(Cl)c(Cl)c3)nc2c1 [Example 2]
- mRNA expression level of the klotho (KL) gene (klotho (KL) gene [8]): at a level similar to that of Comparative Example 1
- expression of the reporter gene ([1]; RPTEC cells, 5 μM, pHKP-luc (FIG. 3)): at a level similar to that of Comparative Example 1
- expression of the reporter gene [1, 9]: at a level similar to that of Comparative Example 1
